From patent US11752159B2, “Compositions and methods for suppressing or reducing systemic immune response in a subject” (THE TRUSTEES OF THE UNIVERSITY OF PENNSYLVANIA, priority 2015, dated 2023)

What was measured:
[1] = system: regulatory T cells (Tregs); assay: Topical MC903 on ear skin of wildtype mice, fraction of Tregs in skin, blood and lymphoid organs; type: in vivo; details: 2 nmol
Text: FIGS. 1A-1B comprise graphs relating to topical treatment of B6 mice with EtOH or MC903 (2 nmol) on one ear. FIG. 1A, comprising FACS data and a graph, illustrates the percentage of regulatory T cells (Tregs) in the ear skin homogenate of B6 mice. “Treated” refers to topical administration of MC903 to the ear skin of the B6 mice. “Untreated” refers to topical administration of EtOH to the ear skin of the B6 mice. FIG. 1B comprises graphs illustrating the percentage of Tregs out of CD4+ T cells in the blood, spleen, and peripheral lymph nodes of B6 mice topically treated with MC903. FIG. 2 is a graph illustrating the percentage of Tregs out of CD4+ T cells in the spleen after B6 mice were treated topically or injected intraperitoneally with EtOH or MC903 (2 nmol). Wildtype (WT) mice were treated with vehicle (100% EtOH) or MC903 once a day on the skin of one ear for 7 days. On Day 8, the ear skin of both ears, blood, and secondary lymphoid organs (lymph nodes and spleen) were harvested.

[2] = system: regulatory T cells (Tregs); assay: Kinetics of systemic Treg levels after topical MC903 treatment; type: in vivo, mice; details: Day 15, after cessation of topical treatment
Text: FIG. 3A-3C comprise graphs illustrating data derived from topical treatment of B6 mice with EtOH or MC903 (2 nmol) until […]. Mice were taken at different time points post treatment initiation as indicated. FIG. 3A is a graph illustrating the percentage of Tregs out of CD4+ T cells in the spleen and blood of B6 mice over 18 days. FIG. 3B illustrates the absolute numbers of Tregs in the spleen of B6 mice over 18 days. FIG. 3C illustrates the serum thymic stromal lymphopoietin (TSLP) level change over time in B6 mice over 18 days.
Next, the kinetics of the systemic increase in Treg levels was investigated after topical MC903 treatment (treatment stopped on Day 7). The absolute number and the fraction of Tregs increased to a peak between days 6 and 9 and gradually declined thereafter in the spleen and the blood of MC903-treated mice (FIGS. 3A-3B). Circulating TSLP levels peaked at Day 6 and fell abruptly by Day 9 (FIG. 3C).

ApoE KO mice = assay: ApoE KO mouse model of atherosclerosis, topical MC903; type: in vivo; details: high fat Western diet, topical 3 times/week every other week for 10 weeks
Text: FIGS. 6A-6B comprise graphs illustrating data derived from topical treatment of ApoE KO mice fed a high-fat Western diet with EtOH or MC903 (2 nmol) 3 times/week every other week for 10 weeks. FIG. 6A illustrates the total cholesterol levels at baseline, at week 3, and week 10 of ApoE KO mice. FIG. 6B illustrates the atherosclerotic plaques difference among ApoE KO mice. The full length of the aorta was removed from the mice at week 10 and stained with Oil Red O dye to detect atherosclerotic plaques. The area occupied by the plaque was calculated and divided by the total area of the aorta (% lesion area). N=7 mice/group. * indicates significance of p<0.01 by T-test.
The effects of topical application of MC903 on atherosclerotic plaques were investigated. Atherosclerosis is a disease condition where lipid deposition occurs in arterial walls, leading to obstruction of blood flow. Ultimately, these lesions cause morbidity and mortality by affecting blood flow to the heart (myocardial infarction; angina) or the brain (stroke). Although these lesions are formed by cholesterol deposits in patients who have hypercholesterolemia, immune activation is necessary for plaque progression, and Tregs are implicated in dampening the progression of atherosclerosis. It is contemplated that topical MC903 treatment can attenuate plaque progression in atherosclerosis. […]

B6 mice [3] = assay: Experimental allergic encephalitis (EAE) mouse model of multiple sclerosis, topical MC903; type: in vivo; details: topical daily starting 1 day before disease induction, compared to EtOH-treated mice
Method: FIG. 7 illustrates the clinical score difference among B6 mice topically treated with EtOH or MC903 daily for 2 weeks. The B6 mice were injected with myelin oligodendrocyte glycoprotein (MOG) peptide emulsified in complete Freund's adjuvant (CFA), then received Pertussis toxin intraperitoneally at the time of immunization and 48 h later. The mice were treated with topical EtOH or MC903 daily for 2 weeks. Mice were clinically scored on a five-point scale for signs of disease on the indicated days. N=8 mice/group. P=0.06 by two-way Analysis of variance (ANOVA). To test whether topical MC903 treatment was effective at treating multiple sclerosis (MS), the effect of MC903 in reducing clinical severity of a mouse model of MS known as experimental allergic encephalitis (EAE). Mice were topically treated daily with MC903 starting 1 day before disease induction. […] Thus, topical MC903 treatment might also be beneficial in the treatment of multiple sclerosis.

B6 mice [4] = assay: K/BxN serum-induced arthritis mouse model, topical MC903; type: in vivo
Method: FIGS. 8A-8B comprise graphs illustrating data derived from injecting B6 mice with 75 μl of serum from K/B×N mice on Days 0 and 2, and topically treating the mice with MC903 starting at Day 0. FIG. 8A illustrates the percentage of Tregs in blood of B6 mice determined on Day 8 post MC903 treatment in comparison with EtOH treatment. FIG. 8B illustrates the change of ankle thickness over time after B6 mice were injected with 75 μl of serum from K/B×N mice on Days 0 and 2, and were topically treated with MC903 starting at Day 0. Ankle thickness was measured twice a week and plotted as % maximal ankle thickness of each mouse. N=3 mice/group. Whether MC903 treatment can attenuate joint swelling in a mouse model of rheumatoid arthritis was tested in the following experiment. In this model, serum from arthritic mice (K/B×N) is injected into normal wildtype mice. […] Mice were treated topically with MC903 or EtOH (daily) and injected with arthritogenic serum (on Days 0 and 2).

TSLP = assay: Systemic TSLP induction by topical vitamin D3 analogs (ELISA); type: in vivo, mice; details: topical, ear skin bilaterally, 2 nmol/ear in ethanol, after 5 days of treatment

With `C=C1/C(=C\C=C2/CCC[C@]3(C)[C@@H]([C@H](C)/C=C/[C@@H](O)C4CC4)CC[C@@H]23)C[C@@H](O)C[C@@H]1O` [MC903, 26,27-cyclo-22-ene-1α,24S-dihydroxyvitamin D3] the “effect on Tregs (spleen) when injected intraperitoneally” value ([1]; intraperitoneal injection) was “No effect”, the “increase in the fraction of Tregs (% Foxp3+ of CD4+ T cells) in treated ear skin” value ([1]; topical once a day on one ear for 7 days, Day 8, compared to EtOH-treated side) was “about 2 fold” and the “Treg levels versus EtOH-treated group by Day 15” value [2] was “no differences”. The “decrease of % of area occupied by the plaques in the aorta” value (ApoE KO mice) was > 50%, the total cholesterol levels (ApoE KO mice) was “did not alter” and the “clinical severity of EAE” value (B6 mice [3]) was “attenuated clinical severity”. For the same compound, the “joint swelling and erythema after Day 7” value (B6 mice [4]; concomitant with the elevated Treg percentages) was “quick reduction”, the “circulating Treg levels” value (B6 mice [4]; mice injected with arthritogenic serum, topical daily) was “increased” and the “serum TSLP levels” value (TSLP) was “can induce TSLP production”.
